# Values quoted from earlier work in patent US20110301189A1, “STABLE PHARMACEUTICAL COMPOSITIONS OF RAPAMYCIN ESTERS” (FRESENIUS KABI ONCOLOGY LTD., priority 2010, published 2011).
# Conditions: aqueous solvents
smiles,measurement,value
COC1CC2CCC(C)C(O)(O2)C(=O)C(=O)N2CCCCC2C(=O)OC(C(C)CC2CCC(OC(=O)C(C)(CO)CO)C(OC)C2)CC(=O)C(C)/C=C(\C)C(O)C(OC)C(=O)C(C)CC(C)/C=C/C=C/C=C/1C (stereo not shown) [Rapamycin 42-ester with 3-hydroxy-2-(hydroxymethyl)-2-methylpropionic acid],aqueous solubility,less than 1 μg/ml
